Measured values taken from patent US20260159826A1, “METHOD OF MODIFYING CELLS” (ROYAL MELBOURNE INSTITUTE OF TECHNOLOGY, priority 2022, published 2026).

Columns and labels:
HUVEC monolayers [1] = test: Intracellular cAMP (cyclic AMP XP assay) in SRBW mechanostimulated cells with Ca2+ inhibitors and chelators; type: cell-based, human; details: for cAMP release: SRBW pretreatment in the presence of extracellular calcium, then sequential treatment, FIG. 2(e-iv), 2(e-v); for cAMP levels under SRBW mechanostimulation: pretreatment with BAPTA-AM and TPEN together, FIG. 2(e-ii)
Experimental: (§1) Endothelial cells were cultured in Endothelial Cell Growth Medium-2 (EGM™2) BulletKit™ in a humidified incubator maintained at 37° C. and 5% CO2. The cells were grown in a standard T25 flask until they reached 80-90% confluency, following which they were detached using 0.05% trypsin-EDTA, reseeded in the culture plates at a density of 5000 cells/cm2 and incubated until they reached 90-95% confluency. The confluent monolayer is then exposed to the SRBW irradiation at the prescribed input power and duration. The cells were immediately processed for analysis upon removal of the acoustic field at various post-exposure incubation timepoints.
cAMP concentrations were measured through a cyclic AMP XP™ assay. Briefly, the EC monolayers were washed in Tyrode's buffer (137mMsodium chloride, 12mMsodium bi-carbonate, 5.5 mM glucose, 2 mM potassium chloride, 1mMmagnesium chloride and 0.3 mM disodium hydrogen phosphate) at pH 7.4 supplemented with […] IBMX—a phosphodiesterase inhibitor, to prevent the hydrolysis of cAMP. The cells were then exposed to the SRBW followed by incubation at different time points, after which the cells were lysed in 100 μl of lysis buffer that was supplied with the kit. 25 μl of the cell lysate and HRP-linked cAMP solution was subsequently transferred into the cAMP assay microtiter plates provided and incubated for 3 hrs at room temperature. Following incubation, the plate was washed four times and the liquid discarded. 100 μl of the supplied 3,3′,5,5″-tetramethylbenzidine (TMB) was then added and the solution incubated in the dark for 15 mins. The reaction was ceased by adding 100 μl of the provided STOP solution and its absorbance measured at 450 nm using a spectrophotometric plate reader (CLARIOstar, BMG LabTech, Mornington, VIC, Australia). The average of three measurements per treatment group was taken for cells from each individual culture, from which the cAMP concentrations can be calculated using a standard curve.

THP-1 cells = test: Wash assay (adherence assay) of SRBW stimulated monocytes pretreated with inhibitors/chelators; type: cell-based; details: SRBW Treatment 4, 36 hours post exposure, BAPTA-AM 20 μM, Thapsigargin 300 nM, TPEN 1 mM, GGTI-298 15 μM, HJC0197 25 μM, FIG. 18, 19
Experimental: Cell culture and Mechanostimulation: THP-1 cells were obtained from CellBank (Children Medical Research institute, NSW) and grown in suspension in RPMI+Glutamax supplemented with 10% (v/v) heat-inactivated FBS with 1% penicillin-streptomycin in a humidified 37° C., 5% CO2 incubator. Low passage (passage 15 or less) cells were seeded at cell density ranging from 0.5×10^5-0.5×10^6 per cm^2. The cells were then stimulated with SRBW at a frequency of 10 Mhz and at the indicated input power and duration. The cells were stimulated and processed at different post-exposure incubation times (24 h, 36 h, 48 h, 72 h, Day 5, Day 7, Day 9).
Wash Assay: Control (untreated) and treated cells were initially characterised by wash-assay or adherence assay. Undifferentiated THP1 cells were non-adherent cells. Accordingly, cells were initially characterised by determining the percentage of adherent cells. The spent media from control and treated wells were carefully collected into labelled centrifuge tubes. The wells were washed three times with media. After each wash, the wash media was collected into corresponding centrifuge tubes. The tubes were then centrifuged at 250×g for 5 minutes. The supernatant was carefully removed, and the pellet was homogeneously mixed with 1×PBS. The cells collected from spent and wash media were counted trypan blue exclusion assay using a hemocytometer. The percentage of adherent cells was calculated by (number of cells from control wells—number of cells from treated wells/number of cells from control wells)×100. The viability was also determined using the same. The change in the cellular morphology was also recorded using Nikon.

endothelial cells = test: Stress fibre (SF) formation after SRBW exposure under ROCK inhibition; type: cell-based, human; details: initial sonochallenge phase, early times (<0.3 hrs) after SRBW; data not shown
HUVEC monolayers [2] = test: VE-cadherin remodelling, CAB formation, linearity index and AJ length in SRBW mechanostimulated cells with pathway inhibitors; type: cell-based, human; details: for Linearity index / AJ length (adhesion site length) / CAB formation: SRBW 8 mins at 1.5 W, GGTI-298 15 μM, NSC23766 10 μM; for Linearity index / AJ length (adhesion site length): 30 mins post exposure; for Linearity index: FIG. 6(b); for AJ length (adhesion site length): FIG. 6(c)
HUVEC monolayers [3] = type: cell-based, human; details: SRBW 8 mins at 1.5 W; in the presence of piezo channel inhibitor; FIG. 4(b)
Experimental: as §1
Free cytosolic calcium levels were determined using the fluorescent calcium indicator Fura-2AM. In brief, the EC monolayers were incubated in […] Fura-2AM in Opti-MEM™ reduced serum medium supplemented with 2% (vol/vol) heat-inactivated FBS at 37° C. in the dark. […] The fluorescence emission intensity at 510 nm in individual wells at excitation wavelengths of 340 and 380 nm were measured using a spectrophotometric plate reader (CLARIOstar® BMG LabTech, Mornington, VIC, Australia). The ratio of Fura-2 AM fluorescence emission in response to 340 nm and 380 nm excitation (340/380) was calculated and expressed in terms of the fold change with respect to that of the respective control (unexcited) cells. […]

## c1ccc(CN(CCN(Cc2ccccn2)Cc2ccccn2)Cc2ccccn2)nc1 [TPEN, N,N,N′,N′-tetrakis(2-pyridinylmethyl)-1,2-ethanediamine]
HUVEC monolayers [1]
  cAMP release: affected
  cAMP levels under SRBW mechanostimulation: increased under the SRBW mechanostimulation only when extracellular calcium is present
THP-1 cells
  number of adherent cells: failed to transform to adherent cells

## C[C@@H](N)[C@H]1CC[C@H](C(=O)Nc2ccncc2)CC1.Cl.Cl [Y27632, (R)-(+)-trans-4-(1-aminoethyl)-N-(4-pyridyl)cyclohexanecarboxamide dihydrochloride]
Endothelial cells
  stress fibre (SF) formation: SF attenuation

## CCCCCCOC(=O)[C@]1(O)C[C@H]2O[C@]1(C)n1c3ccccc3c3c4c(c5c6ccccc6n2c5c31)C(=O)NC4 [KT5720, (9S,10S,12R)-2,3,9,10,11,12-hexahydro-10-hydroxy-9-methyl-1-oxo-9,12-epoxy-1H-diindolo[1,2,3-fg:3′,2′,1′-kl]pyrrolo[3,4-i][1,6]benzodiazocine-10-carboxylic acid hexyl ester]
HUVEC monolayers [2]; treated prior to SRBW mechanostimulation, data not shown
  VE-cadherin remodelling and CAB formation: quelled

## N.N.N.N.N.N.N.N.N.N.N.N.N.N.[Cl-].[Cl-].[Cl-].[Cl-].[Cl-].[Cl-].[O-2].[O-2].[Ru+3].[Ru+3].[Ru+4] [ruthenium red]
HUVEC monolayers [3]
  intracellular calcium under the high frequency excitation: abatement of intracellular calcium

## CCN(CC)CCCC(C)Nc1nc(C)cc(Nc2ccc3nc(C)cc(N)c3c2)n1.Cl.Cl.Cl (racemic) [NSC23766, N6-[2-(4-diethylamino-1-methyl-butylamino)-6-methyl-pyrimidin-4-yl]-2-methyl-quinoline-4,6-diamine trihydrochloride]
HUVEC monolayers [2]
  Linearity index: departure from linearity
  AJ length (adhesion site length): increased adhesion site length
HUVEC monolayers [2]; data not shown
  CAB formation: only limited CAB formation

## C[C@H](CCC(=O)O)C[C@H](C)C[C@H](C)C(=O)/C=C(\O)[C@H](C)C[C@H](C)C/C=C/[C@@H](C)[C@@H](O)[C@@H](C)[C@@H](O)C[C@@H]1CC[C@@](C)([C@H]2CC[C@@](C)([C@@H](C)O)O2)O1 [ionomycin]
HUVEC monolayers [1]
  cAMP release: affected
HUVEC monolayers [1]; SRBW pretreatment, then chelation/inhibition, then ionomycin added, FIG. 2(e-iii), 40-50 mins
  cAMP levels: cAMP levels were observed to rise

## COC(=O)[C@H](CC(C)C)NC(=O)c1ccc(NC[C@@H](N)CS)cc1-c1cccc2ccccc12.O.O=C(O)C(F)(F)F [GGTI-298, N-[[4-(2-(R)-amino-3-mercaptopropyl)amino]-2-naphthylbenzoyl]leucine methyl ester trifluoroacetate salt hydrate]
HUVEC monolayers [2]
  Linearity index: departure from linearity
  AJ length (adhesion site length): increased adhesion site length
HUVEC monolayers [2]; data not shown
  CAB formation: only limited CAB formation
THP-1 cells
  number of adherent cells: significantly reduced

## Cc1ccc(C)c(CSc2nc(C3CCCC3)c(C#N)c(=O)[nH]2)c1 [HJC0197, 4-cyclopentyl-2-[[(2,5-dimethylphenyl)methyl]thio]-1,6-dihydro-6-oxo-5-pyrimidinecarbonitrile]
THP-1 cells
  number of adherent cells: significantly reduced

## CC(=O)OCOC(=O)CN(CC(=O)OCOC(C)=O)c1ccccc1OCCOc1ccccc1N(CC(=O)OCOC(C)=O)CC(=O)OCOC(C)=O [BAPTA-AM, 1,2-bis(2-aminophenoxy)ethane-N,N,N′,N′-tetraacetic acid tetrakis(acetoxymethyl ester)]
HUVEC monolayers [1]
  cAMP release: not suppressed
  cAMP levels under SRBW mechanostimulation: increased under the SRBW mechanostimulation only when extracellular calcium is present
THP-1 cells
  number of adherent cells: reduced significantly
